Laboratory results from US20070116781A1, “Hydrogen Cyanamide Pesticide Formulations” (priority 2005, published 2007).

How the values were obtained:
reniform nematodes = assay: Nematicidal activity in covered pots of naturally infested silt loam, soybean planted after 12 days; type: in vivo, Rotylenchulus reniformus
Protocol: (§1) In this study, the soil was naturally infested with four species of nematodes, two of which were deleterious and two beneficial, and observations were made of both the nematode survival and the growth of the soybean plants.
(§2) Stock solutions of hydrogen cyanamide at 1.0% by weight and propionic acid at 5.0% by weight, both in water, were prepared, the hydrogen cyanamide from a phosphate-buffered 50% aqueous solution. Planting pots measuring 10 cm in diameter, each containing 1 kg of soil, were used. The soil was silt loam from a cotton field, pH 6.2, CEC<10 meq/100 g soil, organic matter<1.0%. The treatment chemicals were combined in various dilutions such that 100 mL of the combined dilutions contained the desired amount of each chemical for each test. The combined dilutions were then applied to the soil surface in each pot, at 100 mL of combined dilution per pot. The dilutions were selected to achieve target application rates expressed in milligrams of the treatment chemical per kilogram of soil, with 1 milligram of treatment chemical per kilogram of soil being approximately equal to 2 kilograms of the chemical per hectare of soil or 2 pounds of the chemical per acre of soil.
(§3) Immediately after the treatment chemicals were applied, each pot was covered by a thick (1.5 mil), clear, low-density polyethylene bag. After twelve days, the bags were removed and soil samples were taken from each pot for nematological analysis by the salad bowl technique of Rodriguez-Kabana, R., and M. H. Pope, Nematropica, 11: 175-186 (1981). The results of these analyses are listed in Table I as pre-plant test results. The results for the two deleterious nematodes are also shown as plots of the number of nematodes vs. the hydrogen cyanamide application rate in FIGS. 1 and 2.
(§4) After the polyethylene bags were removed, each pot was planted with Hutcheson soybean seeds at 5 seeds per pot, and the seeds were allowed to germinate and the plants to grow for 45 days. The resulting plants were then removed from the pots, the root systems were washed, and the number of plants in each pot was determined. The weights of both fresh shoots and roots were also determined as well as the shoot height and the relative health of the root system, using a subjective index. Soil samples were also collected, and the soil and roots were incubated to determine nematode populations. Treatments were arranged in randomized complete block design with seven replications per treatment, and statistical evaluation of the data was performed with analyses of variance (ANOVA) and standard regression procedures. Fischer's Least Significant Difference at p 0.05 was calculated when appropriate. The results of these tests are listed as final test results in Tables II, III, and IV, with nematode populations in the soil listed in Table II, the nematode populations in the root systems in Table III, and the plant and root parameters of the soybean shoots in Table IV.

spiral nematodes = assay: as above; type: in vivo, Helicotylenchus dihystera
Protocol: as §1, §2, §3, §4

microbivorous nematodes = assay: Effect on beneficial nematodes in covered pots of silt loam; type: in vivo
Protocol: as §1, §2, §3, §4

all weeds = assay: Herbicidal activity, phosphate-free cyanamide and propionic acid, post-emergence, uncovered pots; type: in vivo; details: for Weeds Per Pot: All Weeds: cyanamide 150 mg/kg soil
Description: (§5) The procedures in this example differed from those of Example 2, however, by the use of hydrogen cyanamide crystals free of phosphate ion to prepare the aqueous hydrogen cyanamide solution, by the use of post-emergence application, and by the omission of any covering of the pots during any part of the test. Observations were made for total weed growth, and individual observations were also made for yellow nutsedge, crabgrass, sicklepod, and momingglory. Stock solutions of hydrogen cyanamide at 1.25% by weight and propionic acid at 5.0% by weight, both in water, were prepared as before, except that the hydrogen cyanamide solution, as noted above, was prepared by dissolving hydrogen cyanamide crystals in water in the absence of phosphate ion. […] The weeds were allowed to grow for three weeks before the treatment chemicals were applied. […] Data analyses were performed in the same manner as Examples 1 and 2. Table IX lists the results in weeds per pot for all weeds, Table X for yellow nutsedge, Table XI for crabgrass, Table XII for sicklepod, and Table XIII for morningglory, all both with propionic acid alone at various application […]

crabgrass = assay: as above; type: in vivo, Digitaria sanguinalis; details: for Weeds Per Pot: Crabgrass: cyanamide 150 mg/kg soil
Description: as §5

sicklepod = assay: as above; type: in vivo, Senna obtusifolia; details: for Weeds Per Pot: Sicklepod: cyanamide 150 mg/kg soil
Description: The procedures in this example differed from those of Example 2, however, by the use of hydrogen cyanamide crystals free of phosphate ion to prepare the aqueous hydrogen cyanamide solution, by the use of post-emergence application, and by the omission of any covering of the pots during any part of the test. Observations were made for total weed growth, and individual observations were also made for yellow nutsedge, crabgrass, sicklepod, and momingglory. Stock solutions of hydrogen cyanamide at 1.25% by weight and propionic acid at 5.0% by weight, both in water, were prepared as before, except that the hydrogen cyanamide solution, as noted above, was prepared by dissolving hydrogen cyanamide crystals in water in the absence of phosphate ion. […] The weeds were allowed to grow for three weeks before the treatment chemicals were applied. […] Data analyses were performed in the same manner as Examples 1 and 2. Table IX lists the results in weeds per pot for all weeds, Table X for yellow nutsedge, Table XI for crabgrass, Table XII for sicklepod, and Table XIII for morningglory, all both with propionic acid alone at various application rates and with […]

[1] = 12 d after treatment, pre-plant, cyanamide 20 mg/kg soil
[2] = 12 d after treatment, pre-plant, cyanamide 40 mg/kg soil
[3] = 12 d after treatment, pre-plant, cyanamide 60 mg/kg soil
[4] = 12 d after treatment, pre-plant, cyanamide 80 mg/kg soil
[5] = 12 d after treatment, pre-plant, cyanamide 120 mg/kg soil
[6] = 57 d after treatment, 45 d after planting, cyanamide 20 mg/kg soil
[7] = 57 d after treatment, 45 d after planting, cyanamide 40 mg/kg soil
[8] = 57 d after treatment, 45 d after planting, cyanamide 60 mg/kg soil
[9] = 57 d after treatment, 45 d after planting, cyanamide 80 mg/kg soil
[10] = 57 d after treatment, 45 d after planting, cyanamide 120 mg/kg soil
[11] = 57 d after treatment, cyanamide 20 mg/kg soil
[12] = 57 d after treatment, cyanamide 40 mg/kg soil
[13] = 57 d after treatment, cyanamide 60 mg/kg soil
[14] = 57 d after treatment, cyanamide 80 mg/kg soil
[15] = 57 d after treatment, cyanamide 120 mg/kg soil
[16] = hydrogen cyanamide 125 mg/kg of soil alone, all intervals

## N#CN [Cyanamide, hydrogen cyanamide]
Reniform nematodes; [1]
  Surviving Nematodes: Reniform: 274 per 100 mL of soil
Reniform nematodes; [2]
  Surviving Nematodes: Reniform: 191 per 100 mL of soil
Reniform nematodes; [3]
  Surviving Nematodes: Reniform: 102 per 100 mL of soil
Reniform nematodes; [4]
  Surviving Nematodes: Reniform: 120 per 100 mL of soil
Reniform nematodes; [5]
  Surviving Nematodes: Reniform: 16 per 100 mL of soil
Reniform nematodes; [6]
  Surviving Nematodes: Reniform: 240 per 100 mL of soil
Reniform nematodes; [7]
  Surviving Nematodes: Reniform: 190 per 100 mL of soil
Reniform nematodes; [8]
  Surviving Nematodes: Reniform: 167 per 100 mL of soil
Reniform nematodes; [9]
  Surviving Nematodes: Reniform: 354 per 100 mL of soil
Reniform nematodes; [10]
  Surviving Nematodes: Reniform: 95 per 100 mL of soil
Reniform nematodes; [11]
  Surviving Nematodes in Root System: Reniform: 25.7 Per Pot
Reniform nematodes; [12]
  Surviving Nematodes in Root System: Reniform: 9.6 Per Pot
Reniform nematodes; [13]
  Surviving Nematodes in Root System: Reniform: 13.4 Per Pot
Reniform nematodes; [14]
  Surviving Nematodes in Root System: Reniform: 19.4 Per Pot
Reniform nematodes; [15]
  Surviving Nematodes in Root System: Reniform: 4.3 Per Pot
Spiral nematodes; [1]
  Surviving Nematodes: Spiral: 102 per 100 mL of soil
Spiral nematodes; [2]
  Surviving Nematodes: Spiral: 95 per 100 mL of soil
Spiral nematodes; [3]
  Surviving Nematodes: Spiral: 59 per 100 mL of soil
Spiral nematodes; [4]
  Surviving Nematodes: Spiral: 76 per 100 mL of soil
Spiral nematodes; [5]
  Surviving Nematodes: Spiral: 18 per 100 mL of soil
Spiral nematodes; [6]
  Surviving Nematodes: Spiral: 6.7 per 100 mL of soil
Spiral nematodes; [7]
  Surviving Nematodes: Spiral: 3.7 per 100 mL of soil
Spiral nematodes; [8]
  Surviving Nematodes: Spiral: 2.9 per 100 mL of soil
Spiral nematodes; [9]
  Surviving Nematodes: Spiral: 9.8 per 100 mL of soil
Spiral nematodes; [10]
  Surviving Nematodes: Spiral: 4.7 per 100 mL of soil
Spiral nematodes; [11]
  Surviving Nematodes in Root System: Spiral: 42.3 Per Pot
Spiral nematodes; [12]
  Surviving Nematodes in Root System: Spiral: 38.6 Per Pot
Spiral nematodes; [13]
  Surviving Nematodes in Root System: Spiral: 42 Per Pot
Spiral nematodes; [14]
  Surviving Nematodes in Root System: Spiral: 28 Per Pot
Spiral nematodes; [15]
  Surviving Nematodes in Root System: Spiral: 16 Per Pot
Microbivorous nematodes; [1]
  Surviving Nematodes: Microbivorous: 92 per 100 mL of soil
Microbivorous nematodes; [2]
  Surviving Nematodes: Microbivorous: 86 per 100 mL of soil
Microbivorous nematodes; [3]
  Surviving Nematodes: Microbivorous: 96 per 100 mL of soil
Microbivorous nematodes; [4]
  Surviving Nematodes: Microbivorous: 144 per 100 mL of soil
Microbivorous nematodes; [5]
  Surviving Nematodes: Microbivorous: 75 per 100 mL of soil
Microbivorous nematodes; [6]
  Surviving Nematodes: Microbivorous: 132 per 100 mL of soil
Microbivorous nematodes; [7]
  Surviving Nematodes: Microbivorous: 121 per 100 mL of soil
Microbivorous nematodes; [8]
  Surviving Nematodes: Microbivorous: 78 per 100 mL of soil
Microbivorous nematodes; [9]
  Surviving Nematodes: Microbivorous: 99 per 100 mL of soil
Microbivorous nematodes; [10]
  Surviving Nematodes: Microbivorous: 52 per 100 mL of soil
Microbivorous nematodes; [11]
  Surviving Nematodes in Root System: Microbivorous: 176.9 Per Pot
Microbivorous nematodes; [12]
  Surviving Nematodes in Root System: Microbivorous: 126.9 Per Pot
Microbivorous nematodes; [13]
  Surviving Nematodes in Root System: Microbivorous: 118 Per Pot
Microbivorous nematodes; [14]
  Surviving Nematodes in Root System: Microbivorous: 113 Per Pot
Microbivorous nematodes; [15]
  Surviving Nematodes in Root System: Microbivorous: 123 Per Pot
All weeds; 6 d after treatment
  Weeds Per Pot: All Weeds: 6.3
All weeds; 13 d after treatment
  Weeds Per Pot: All Weeds: 7.7
All weeds; 20 d after treatment
  Weeds Per Pot: All Weeds: 10.1
All weeds; [16]
  Total weeds per pot: less than ten total weeds per pot
crabgrass; 6 d after treatment
  Weeds Per Pot: Crabgrass: 0
crabgrass; 13 d after treatment
  Weeds Per Pot: Crabgrass: 0.4
crabgrass; 20 d after treatment
  Weeds Per Pot: Crabgrass: 0.3
crabgrass; [16]
  Crabgrass weeds per pot: about one or fewer crabgrass weeds per pot
sicklepod; 6 d after treatment
  Weeds Per Pot: Sicklepod: 0.6
sicklepod; 13 d after treatment
  Weeds Per Pot: Sicklepod: 1.4
sicklepod; 20 d after treatment
  Weeds Per Pot: Sicklepod: 1
sicklepod; [16]
  Sicklepod weeds per pot: about one or fewer sicklepod weeds per pot
